Test results published in the supplement of paper PMC10307832.

Compound: Cc1cnc(CNC(=O)c2c(=O)c3ccc(N4CCCN(C)CC4)nc3n3c2sc2ccccc23)cn1 [CX-5461] + CC(C)C[C@H](NC(=O)[C@H](Cc1ccccc1)NC(=O)c1cnccn1)B(O)O [Bortezomib] (partner 0.002 µM)
Assay: relative viability (nuclei count vs DMSO), 5 days (fraction); higher = more cells survive
Conditions: first compound 1 µM
How it was run: (§1)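 Lung cancer cell lines were pin-tool dosed in 1536-well plates on the day after seeding, with either a lone drug or a fixed anchor-drug dose plus five library-drug doses (not always all listed) in √10 steps. Nuclei were counted on 4× images after 5 days. Relative viability is the ratio of treated-well to vehicle-well nuclei counts, with each value a median of duplicate plates.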

Point of comparison: NCI-H650, relative viability 0.483. Against it:
- PC-3 [JPC-3] — higher, 0.825

Compound: Cc1cnc(CNC(=O)c2c(=O)c3ccc(N4CCCN(C)CC4)nc3n3c2sc2ccccc23)cn1 [CX-5461] + CC(=O)Nc1cccc(-n2c(=O)n(C3CC3)c(=O)c3c(Nc4ccc(I)cc4F)n(C)c(=O)c(C)c32)c1 [Trametinib] (partner 0.02 µM)
Assay: as above
Conditions: first compound 0.01 µM
How it was run: as §1

Point of comparison: PC-3 [JPC-3], relative viability 0.822. Against it:
- NCI-H2023 — lower, 0.54
- HCC-15 — lower, 0.419
- PC-14 — lower, 0.718
- EKVX — lower, 0.389
- LC-2-ad — higher, 0.901
- NCI-H1975 — lower, 0.39
- RERF-LC-KJ — higher, 0.853
- NCI-H650 — higher, 1.06

Same assay, conditions: first compound 0.03162 µM

Point of comparison: RERF-LC-KJ, relative viability 0.908. Against it:
- NCI-H2023 — lower, 0.564
- HCC-15 — lower, 0.31
- PC-14 — lower, 0.821
- EKVX — lower, 0.306
- LC-2-ad — higher, 0.96
- NCI-H1975 — lower, 0.317
- NCI-H650 — higher, 0.938

Same assay, conditions: first compound 0.1 µM

Point of comparison: PC-14, relative viability 0.391. Against it:
- HCC-15 — lower, 0.383
- EKVX — higher, 0.482
- LC-2-ad — higher, 0.931
- NCI-H1975 — lower, 0.367
- RERF-LC-KJ — higher, 0.694
- NCI-H650 — higher, 0.991
- PC-3 [JPC-3] — higher, 0.719

Same assay, conditions: first compound 0.3162 µM

Point of comparison: NCI-H2023, relative viability 0.491. Against it:
- HCC-15 — lower, 0.376
- PC-14 — higher, 0.76
- LC-2-ad — higher, 0.912
- NCI-H1975 — lower, 0.395
- RERF-LC-KJ — higher, 0.89
- NCI-H650 — higher, 1.05
- PC-3 [JPC-3] — higher, 0.749

Same assay, conditions: first compound 1 µM

Point of comparison: NCI-H1975, relative viability 0.298. Against it:
- NCI-H2023 — lower, 0.115
- HCC-15 — higher, 0.34
- PC-14 — lower, 0.151
- EKVX — lower, 0.265
- LC-2-ad — higher, 0.847
- RERF-LC-KJ — higher, 0.644
- NCI-H650 — higher, 0.911
- PC-3 [JPC-3] — higher, 0.644

Compound: Cc1cnc(CNC(=O)c2c(=O)c3ccc(N4CCCN(C)CC4)nc3n3c2sc2ccccc23)cn1 [CX-5461] + Nc1ncn([C@H]2C[C@H](O)[C@@H](CO)O2)c(=O)n1 [Decitabine] (partner 2 µM)
Assay: as above
Conditions: first compound 0.01 µM
How it was run: as §1

Point of comparison: LC-2-ad, relative viability 0.805. Against it:
- NCI-H2023 — lower, 0.223
- HCC-15 — lower, 0.684
- PC-14 — lower, 0.246
- EKVX — lower, 0.286
- NCI-H1975 — lower, 0.404
- RERF-LC-KJ — lower, 0.686
- NCI-H650 — lower, 0.328
- PC-3 [JPC-3] — lower, 0.801

Same assay, conditions: first compound 0.03162 µM

Point of comparison: RERF-LC-KJ, relative viability 0.677. Against it:
- NCI-H2023 — lower, 0.178
- HCC-15 — lower, 0.654
- PC-14 — lower, 0.202
- EKVX — lower, 0.418
- LC-2-ad — higher, 0.867
- NCI-H1975 — lower, 0.36
- NCI-H650 — lower, 0.272

Same assay, conditions: first compound 0.1 µM

Point of comparison: RERF-LC-KJ, relative viability 0.381. Against it:
- HCC-15 — higher, 0.605
- PC-14 — lower, 0.152
- EKVX — higher, 0.395
- LC-2-ad — higher, 0.809
- NCI-H1975 — higher, 0.424
- NCI-H650 — lower, 0.298
- PC-3 [JPC-3] — higher, 0.842

Same assay, conditions: first compound 0.3162 µM

Point of comparison: LC-2-ad, relative viability 0.795. Against it:
- NCI-H2023 — lower, 0.178
- HCC-15 — lower, 0.69
- PC-14 — lower, 0.204
- NCI-H1975 — lower, 0.447
- RERF-LC-KJ — lower, 0.528
- NCI-H650 — lower, 0.32
- PC-3 [JPC-3] — higher, 0.801

Same assay, conditions: first compound 1 µM

Point of comparison: NCI-H650, relative viability 0.313. Against it:
- NCI-H2023 — lower, 0.0728
- HCC-15 — higher, 0.354
- PC-14 — lower, 0.114
- EKVX — higher, 0.39
- LC-2-ad — higher, 0.79
- NCI-H1975 — lower, 0.276
- RERF-LC-KJ — higher, 0.41
- PC-3 [JPC-3] — higher, 0.77
